In patent US12104195B2, “Reelin/VEGF-C production/activation promoter and skin external composition using the same” (Amorepacific Corporation, priority 2022, dated 2024):

Legend:
reelin = experiment: Reelin cytokine analysis (Human reelin ELISA Kit) in human dermal lymphatic endothelial cells; format: cell-based; conditions: HDLEC, 48 hours, compared with DMSO control group (100%); extract 1-100 μg/ml, compound 100-2000 nmole; FIGS. 3 and 4
Experimental: Human dermal lymphatic endothelial cells were cultured in 6 well plates for 24 hours, while treated with DMSO as a control group (reference; 100%), treated with the fermented ginseng extract of the preparation example and the compound represented by Chemical Formula 1-1 (Sigma-Aldrich Co., Ltd.) at each concentration of 1 μg/ml, 10 μg/ml, 20 μg/ml, 50 μg/ml, and 100 μg/ml and at each concentration of 100 nmole, 250 nmole, 500 nmole, 1000 nmole, and 2000 nmole, cultured for 48 hours, and then measured with respect to production and activity of reelin through a reelin cytokine analysis according to a manual by using Human reelin ELISA Kit (Mybiosource, Inc., U.S.A.), and the results are shown in FIGS. 3 and 4.

VEGF-C = VEGF-C cytokine analysis (VEGFC Human ELISA Kit) in normal human epidermal keratinocytes; format: cell-based; conditions: NHEK, 48 hours, compared with DMSO control group (100%); extract 1-100 μg/ml, compound 100-2000 nmoles; FIGS. 5 and 6
Experimental: Normal human epidermal keratinocytes were cultured in 6 well plates for 24 hours, while treated with DMSO as a control group (reference; 100%), treated with the fermented ginseng extract of the preparation example and the compound represented by Chemical Formula 1-1 (Sigma-Aldrich Co., Ltd.) at each concentration of 1, 10, 20, 50 and 100 μg/ml and at each concentration of 100, 250, 500, 1000, and 2000 nmoles, cultured for 48 hours, and then measured with respect to production and activity of VEGF-C through VEGF-C cytokine analysis by using VEGFC Human ELISA Kit (ThermoFisher Scientific, U.S.A.) according to a manual, and the results are shown in FIGS. 5 and 6.

CC(C)=CCC[C@](C)(O[C@@H]1O[C@H](CO[C@@H]2O[C@H](CO)[C@@H](O)[C@H](O)[C@H]2O)[C@@H](O)[C@H](O)[C@H]1O)[C@H]1CC[C@]2(C)[C@@H]1[C@H](O)C[C@@H]1[C@@]3(C)CC[C@H](O[C@@H]4O[C@H](CO)[C@@H](O)[C@H](O)[C@H]4O)C(C)(C)[C@@H]3CC[C@]12C
production and activity of reelin (reelin): improved production and activity of reelin | production and activity of VEGF-C (VEGF-C): more improved the production and activity of VEGF-C
